Target: Aβ42 (Homo sapiens, UniProt P05067)
Assay: Th-T (thioflavin-T) assay of Aβ42 aggregation
Type: biochemical

Sequence of Aβ42 (P05067 672-713): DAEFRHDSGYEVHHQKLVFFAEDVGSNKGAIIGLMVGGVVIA

Structure (SMILES): C=C1CCC2C(C)(CCC=C(C)C)C(O)CCC2(C)C1Cc1c(OC)oc(C)c(C(=O)OC)c1=O (stereo not drawn) [Compound 14]
- Fig. 7a Th-T reading, mean of three wells (column suffix _20, reading M101): 1.75
- Fig. 7a Th-T reading, mean of three wells (column suffix _20, reading M102): 1.725
- Fig. 7a Th-T reading, mean of three wells (column suffix _20, reading M103): 1.692
- Fig. 7a Th-T reading, mean of three wells (column suffix _20, reading M104): 1.726
- Fig. 7a Th-T reading, mean of three wells (column suffix _20, reading M105): 1.714
- Fig. 7a Th-T reading, mean of three wells (column suffix _20, reading M106): 1.718
- Th-T fluorescence, mean of three wells (Fig. 7a) (column suffix _50, measurement M19): 0.5495
- Th-T fluorescence, mean of three wells (Fig. 7a) (column suffix _50, measurement M20): 0.5788
- Th-T fluorescence, mean of three wells (Fig. 7a) (column suffix _50, measurement M21): 0.6066
- Th-T fluorescence, mean of three wells (Fig. 7a) (column suffix _50, measurement M22): 0.6351
- Th-T fluorescence, mean of three wells (Fig. 7a) (column suffix _50, measurement M23): 0.669
- Th-T fluorescence, mean of three wells (Fig. 7a) (column suffix _50, measurement M24): 0.7075
- Th-T fluorescence, mean of three wells (Fig. 7a) (column suffix _50, measurement M25): 0.7535
- Th-T fluorescence, mean of three wells (Fig. 7a) (column suffix _50, measurement M26): 0.8076
- Th-T fluorescence, mean of three wells (Fig. 7a) (column suffix _50, measurement M27): 0.8688
- Th-T fluorescence, mean of three wells (Fig. 7a) (column suffix _50, measurement M28): 0.9376
- Th-T fluorescence, mean of three wells (Fig. 7a) (column suffix _50, measurement M29): 1.02
- Th-T assay signal, mean of three wells (Fig. 7a) (column suffix _50, reading M1): 0.5105
- Th-T assay signal, mean of three wells (Fig. 7a) (column suffix _50, reading M2): 0.462
- Th-T assay signal, mean of three wells (Fig. 7a) (column suffix _50, reading M3): 0.4558
- Th-T assay signal, mean of three wells (Fig. 7a) (column suffix _50, reading M4): 0.4485
- Th-T assay signal, mean of three wells (Fig. 7a) (column suffix _50, reading M5): 0.4526
- Th-T assay signal, mean of three wells (Fig. 7a) (column suffix _50, reading M6): 0.449
- Th-T assay signal, mean of three wells (Fig. 7a) (column suffix _50, reading M7): 0.4479
- Th-T assay signal, mean of three wells (Fig. 7a) (column suffix _50, reading M8): 0.4517
- Th-T assay signal, mean of three wells (Fig. 7a) (column suffix _50, reading M9): 0.4533
- Th-T assay signal, mean of three wells (Fig. 7a) (column suffix _50, reading M10): 0.4553
- Th-T assay signal, mean of three wells (Fig. 7a) (column suffix _50, reading M11): 0.4593
- Th-T assay signal, mean of three wells (Fig. 7a) (column suffix _50, reading M12): 0.4664
- Th-T assay signal, mean of three wells (Fig. 7a) (column suffix _50, reading M13): 0.4713
- Th-T assay signal, mean of three wells (Fig. 7a) (column suffix _50, reading M14): 0.4784
- Th-T assay signal, mean of three wells (Fig. 7a) (column suffix _50, reading M15): 0.4927
- Th-T assay signal, mean of three wells (Fig. 7a) (column suffix _50, reading M16): 0.5
- Th-T assay signal, mean of three wells (Fig. 7a) (column suffix _50, reading M17): 0.5148
- Th-T assay signal, mean of three wells (Fig. 7a) (column suffix _50, reading M18): 0.5358
- Fig. 7a Th-T reading, mean of three wells (column suffix _50, reading M85): 2.033
- Fig. 7a Th-T reading, mean of three wells (column suffix _50, reading M86): 1.994
- Fig. 7a Th-T reading, mean of three wells (column suffix _50, reading M87): 1.943
- Fig. 7a Th-T reading, mean of three wells (column suffix _50, reading M88): 1.897
- Fig. 7a Th-T reading, mean of three wells (column suffix _50, reading M89): 1.8491
- Fig. 7a Th-T reading, mean of three wells (column suffix _50, reading M90): 1.8142
- Fig. 7a Th-T reading, mean of three wells (column suffix _50, reading M91): 1.746
- Fig. 7a Th-T reading, mean of three wells (column suffix _50, reading M92): 1.726
- Fig. 7a Th-T reading, mean of three wells (column suffix _50, reading M93): 1.698
- Fig. 7a Th-T reading, mean of three wells (column suffix _50, reading M94): 1.676
- Fig. 7a Th-T reading, mean of three wells (column suffix _50, reading M95): 1.616
- Fig. 7a Th-T reading, mean of three wells (column suffix _50, reading M96): 1.587
- Fig. 7a Th-T reading, mean of three wells (column suffix _50, reading M97): 1.553
- Fig. 7a Th-T reading, mean of three wells (column suffix _50, reading M98): 1.5408
- Fig. 7a Th-T reading, mean of three wells (column suffix _50, reading M99): 1.482
- Fig. 7a Th-T reading, mean of three wells (column suffix _50, reading M100): 1.465
- Fig. 7a Th-T reading, mean of three wells (column suffix _50, reading M101): 1.408
- Fig. 7a Th-T reading, mean of three wells (column suffix _50, reading M102): 1.3987
- Fig. 7a Th-T reading, mean of three wells (column suffix _50, reading M103): 1.372
- Fig. 7a Th-T reading, mean of three wells (column suffix _50, reading M104): 1.353
- Fig. 7a Th-T reading, mean of three wells (column suffix _50, reading M105): 1.325
- Fig. 7a Th-T reading, mean of three wells (column suffix _50, reading M106): 1.281
- Th-T fluorescence, mean of three wells (compound at 10, reading M41 of time course): 2.4889
- Th-T fluorescence, mean of three wells (compound at 10, reading M42 of time course): 2.504
- Th-T fluorescence, mean of three wells (compound at 10, reading M43 of time course): 2.483
- Th-T fluorescence, mean of three wells (compound at 10, reading M44 of time course): 2.485
- Th-T fluorescence, mean of three wells (compound at 10, reading M45 of time course): 2.494
- Th-T fluorescence, mean of three wells (compound at 10, reading M46 of time course): 2.517
- Th-T fluorescence, mean of three wells (compound at 10, reading M47 of time course): 2.535
- Th-T fluorescence, mean of three wells (compound at 10, reading M48 of time course): 2.517
- Th-T fluorescence, mean of three wells (compound at 10, reading M49 of time course): 2.512
- Th-T fluorescence, mean of three wells (compound at 10, reading M50 of time course): 2.53
- Th-T fluorescence, mean of three wells (compound at 10, reading M51 of time course): 2.541
- Th-T fluorescence, mean of three wells (compound at 10, reading M52 of time course): 2.557
- Th-T fluorescence, mean of three wells (compound at 10, reading M53 of time course): 2.545
- Th-T fluorescence, mean of three wells (compound at 10, reading M54 of time course): 2.546
- Th-T fluorescence, mean of three wells (compound at 10, reading M55 of time course): 2.573
- Th-T fluorescence, mean of three wells (compound at 10, reading M56 of time course): 2.561
- Th-T fluorescence, mean of three wells (compound at 10, reading M57 of time course): 2.58
- Th-T fluorescence, mean of three wells (compound at 10, reading M58 of time course): 2.605
- Th-T fluorescence, mean of three wells (compound at 10, reading M59 of time course): 2.634
- Th-T fluorescence, mean of three wells (compound at 10, reading M60 of time course): 2.6643
- Th-T fluorescence, mean of three wells (compound at 10, reading M61 of time course): 2.702
- Th-T fluorescence, mean of three wells (compound at 10, reading M62 of time course): 2.713
- Th-T fluorescence, mean of three wells (compound at 20, reading M41 of time course): 2.067
- Th-T fluorescence, mean of three wells (compound at 20, reading M42 of time course): 2.077
- Th-T fluorescence, mean of three wells (compound at 20, reading M43 of time course): 2.068
- Th-T fluorescence, mean of three wells (compound at 20, reading M44 of time course): 2.111
- Th-T fluorescence, mean of three wells (compound at 20, reading M45 of time course): 2.074
- Th-T fluorescence, mean of three wells (compound at 20, reading M46 of time course): 2.138
- Th-T fluorescence, mean of three wells (compound at 20, reading M47 of time course): 2.131
- Th-T fluorescence, mean of three wells (compound at 20, reading M48 of time course): 2.161
- Th-T fluorescence, mean of three wells (compound at 20, reading M49 of time course): 2.157
- Th-T fluorescence, mean of three wells (compound at 20, reading M50 of time course): 2.15
- Th-T fluorescence, mean of three wells (compound at 20, reading M51 of time course): 2.157
- Th-T fluorescence, mean of three wells (compound at 20, reading M52 of time course): 2.143
- Th-T fluorescence, mean of three wells (compound at 20, reading M53 of time course): 2.161
- Th-T fluorescence, mean of three wells (compound at 20, reading M54 of time course): 2.178
- Th-T fluorescence, mean of three wells (compound at 20, reading M55 of time course): 2.1338
- Th-T fluorescence, mean of three wells (compound at 20, reading M56 of time course): 2.09
- Th-T fluorescence, mean of three wells (compound at 20, reading M57 of time course): 2.136
- Th-T fluorescence, mean of three wells (compound at 20, reading M58 of time course): 2.093
- Th-T fluorescence, mean of three wells (compound at 20, reading M59 of time course): 2.054
- Th-T fluorescence, mean of three wells (compound at 20, reading M60 of time course): 2.083
- Th-T fluorescence, mean of three wells (compound at 20, reading M61 of time course): 2.064
- Th-T fluorescence, mean of three wells (compound at 20, reading M62 of time course): 2.104
- Th-T fluorescence, mean of three wells (compound at 50, reading M41 of time course): 4.082
- Th-T fluorescence, mean of three wells (compound at 50, reading M42 of time course): 4.376
- Th-T fluorescence, mean of three wells (compound at 50, reading M43 of time course): 4.613
- Th-T fluorescence, mean of three wells (compound at 50, reading M44 of time course): 4.79
- Th-T fluorescence, mean of three wells (compound at 50, reading M45 of time course): 4.938
- Th-T fluorescence, mean of three wells (compound at 50, reading M46 of time course): 5.058
- Th-T fluorescence, mean of three wells (compound at 50, reading M47 of time course): 5.101
- Th-T fluorescence, mean of three wells (compound at 50, reading M48 of time course): 5.128
- Th-T fluorescence, mean of three wells (compound at 50, reading M49 of time course): 5.105
- Th-T fluorescence, mean of three wells (compound at 50, reading M50 of time course): 5.093
- Th-T fluorescence, mean of three wells (compound at 50, reading M51 of time course): 4.998
- Th-T fluorescence, mean of three wells (compound at 50, reading M52 of time course): 4.942
- Th-T fluorescence, mean of three wells (compound at 50, reading M53 of time course): 4.822
